This is an account of results in patent US20080071005A1, “Environment-Friendly Pollution-Proof Agent” (priority 2004, published 2008).

For data set [1], the system named is spores of Enteromorpha prolifera and Ulva pertusa. As to the kind of experiment: prevention of the attachment of fouling algae (summary).
Procedure: The effect of the extracts on the prevention of the attachment of fouling algae was tested using the spores of Enteromorpha prolifera and Ulva pertusa, which are typical fouling algae.
A further data set relates to mice. Kind of data set: safety test, 10 mg/kg to mice, 7 days observation. It counts as in vivo. As to conditions: 10 mg/kg in DMSO/water, 10 mice per group, observed for 7 days.
Data set [2] is described as follows: safety test, oral and transdermal toxicity in rabbits. As to conditions: rabbit, in vivo.
The subject of the next data set is Enteromorpha spores. As to the kind of experiment: inhibitory activity test against the mobility of Enteromorpha spores. It counts as cell-based. The following applies: Brassica extracts and fractions, comparison within the set. The source says:
In order to investigate inhibitory substances against the mobility of Enteromorpha spores from extracts of Citrus sp., organic solvent fractions were made.
In order to investigate inhibitory substances against the mobility of Enteromorpha spores from extracts of brassica, organic solvent fractions were made.

The subject of the next data set is Staphylococcus aureus. As to the kind of experiment: minimum inhibitory concentration, two-fold serial dilution in nutrient broth. The following applies: 30° C., 48 hours. It counts as cell-based. The source says: (§1) A liquid medium obtained by diluting PAGS by two-fold serial dilution was placed on a 96-multiwell plate and inoculated with 10^4 cfu/ml of microorganisms. […] The liquid medium used in the test was a nutrient broth (Difco).

The next data set concerns Aspergillus niger. The description is as above. It is filed as cell-based. As to conditions: 30° C., 48 hours.
Excerpt: as §1

Read-outs that look alike come from different tables or passages of the source. Where only a bound is given, the exact number is not on record here.

`CC(C)=CCC/C(C)=C/C=O`: the antifouling activity result in data set [1] is “excellent antifouling activity”.
Take `CCCCCCCCO` (single isomer, unassigned) [1-octanol]: in data set [1], the antifouling activity result is reported as “excellent antifouling activity”. In the data set with mice, the “death of the mice” value was “no death”.
As for `C=CCN=C=S` (single isomer, unassigned) [allyl isothiocyanate], in data set [1], the antifouling activity result is “excellent antifouling activity”. In the data set on mice, the “death of the mice” value is “no death”.
Regarding `CCCCCCCCCCCCCCCCCCCC(=O)O` [arachadic acid], in data set [1], the antifouling activity entry is listed as “excellent antifouling activity”. Moreover, in the data set with mice, the “death of the mice” value is listed as “no death”.
The like results for `C=CC(=C)CCC=C(C)C` [beta-myrcene] were, in that order, “excellent antifouling activity” and “no death”.
In the case of `CC/C=C\CCOC(C)=O` [cis-3-hexenyl acetate], the LD50 (in general, the dose expected to kill half of the subjects tested) was above 5000 mg/kg in data set [2] (oral, read-out: LD50 (oral)) and above 5000 mg/kg in data set [2] (topical or ocular, transdermal, read-out: LD50 (transdermal)). The antifouling activity entry in data set [1] is listed as “excellent antifouling activity”. Moreover, the “solubility in organic solvent” value (organic solvent) is listed as “insoluble in organic solvent”. The solubility in water entry (water) is “insoluble in water”. Further, the “inhibitory activity against the mobility of Enteromorpha spores, in words” value with Enteromorpha spores is given as “most excellent inhibitory effect”.
Consider `CCCCCCC(=O)OCC` [ethyl heptanoate], for which the antifouling activity entry in data set [1] is “excellent antifouling activity”. The “death of the mice” value with mice is reported as “no death”.
The like results for `C=CCc1ccc(O)c(OC)c1` [eugenol] were, in that order, “excellent antifouling activity” and “no death”.
Turning to methyl caporate, the antifouling activity entry in data set [1] is “excellent antifouling activity”. In addition, the “MIC Staphylococcus aureus 1:0” value with Staphylococcus aureus (ratio 1:0) is 4. The “MIC Staphylococcus aureus 3:1” value in the data set with Staphylococcus aureus (ratio 3:1) came to 5. The “MIC Aspergillus niger 1:0” value with Aspergillus niger (ratio 1:0) came to 10. Also, in the data set with Aspergillus niger (ratio 3:1), the “MIC Aspergillus niger 3:1” value is 6. In addition, in the data set with mice, the “death of the mice” value is reported as “no death”.
